# Data from the supplement of paper PMC10307832.
# What was measured:
# Assay in all cases: relative viability (nuclei count vs DMSO), 5 days (fraction); higher = more cells survive
# [1] = compound: C1CC(C2=C(C1)C3=C(N2)C=CC(=C3)Cl)C(=O)N [Selisistat] + CC(=O)Nc1cccc(-n2c(=O)n(C3CC3)c(=O)c3c(Nc4ccc(I)cc4F)n(C)c(=O)c(C)c32)c1 [Trametinib] (partner 0.02 µM)
# Outline: (§1)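 Relative viability divides the nuclei count in treated wells by that in vehicle wells. Lung cancer cell lines were seeded in 1536-well plates, dosed by pin tool the next day, and fixed and stained after 5 days in one step with final 0.05% Triton X-100, 1% formaldehyde and 1 ug/ml Hoechst. Dosing was a single drug or a fixed anchor-drug dose plus five library-drug doses (not always all listed) in √10 steps, and values are medians of duplicate plates imaged at 4×.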
# [2] = compound: C1CC(C2=C(C1)C3=C(N2)C=CC(=C3)Cl)C(=O)N [Selisistat] + CS(=O)(=O)CCNCc1ccc(-c2ccc3ncnc(Nc4ccc(OCc5cccc(F)c5)c(Cl)c4)c3c2)o1 [Lapatinib] (partner 2 µM)
# Outline: as §1
# [3] = compound: C1CC(C2=C(C1)C3=C(N2)C=CC(=C3)Cl)C(=O)N [Selisistat] + CS(=O)(=O)N1CCN(Cc2cc3nc(-c4cccc5[nH]ncc45)nc(N4CCOCC4)c3s2)CC1 [Pictilisib] (partner 1 µM)
# Outline: as §1
# [4] = compound: c1ccc2c(CCNc3ccc(Nc4ccncc4)cc3)c[nH]c2c1 [Serdemetan] + CC(=O)Nc1cccc(-n2c(=O)n(C3CC3)c(=O)c3c(Nc4ccc(I)cc4F)n(C)c(=O)c(C)c32)c1 [Trametinib] (partner 0.02 µM)
# Outline: as §1
cell line,measurement,setting,value
UMC-11,relative viability,[1]; first compound 0.4 µM,0.575
same,relative viability,[1]; first compound 1.265 µM,0.653
same,relative viability,[1]; first compound 4 µM,0.596
same,relative viability,[1]; first compound 12.65 µM,0.742
same,relative viability,[1]; first compound 40 µM,0.717
same,relative viability,[2]; first compound 0.4 µM,0.921
same,relative viability,[2]; first compound 1.265 µM,0.999
same,relative viability,[2]; first compound 4 µM,0.893
same,relative viability,[2]; first compound 12.65 µM,0.94
same,relative viability,[2]; first compound 40 µM,1.06
same,relative viability,[3]; first compound 0.4 µM,0.793
same,relative viability,[3]; first compound 1.265 µM,0.784
same,relative viability,[3]; first compound 4 µM,0.618
same,relative viability,[3]; first compound 12.65 µM,0.742
same,relative viability,[3]; first compound 40 µM,0.809
same,relative viability,[4]; first compound 0.04 µM,0.703
same,relative viability,[4]; first compound 0.1265 µM,0.672
same,relative viability,[4]; first compound 0.4 µM,0.619
same,relative viability,[4]; first compound 1.265 µM,0.388
same,relative viability,[4]; first compound 4 µM,0.656
